Reference: patent publication EP0290169A2, “Diamineplatinum complexes with phosphonocarboxylate and substituted phosphonocarboxylate ligands as antitumor agents” (ENGELHARD CORPORATION, priority 1987, dated 1988)

The molecules below were run on L1210 leukemia (assay: L1210 screening (L1210 leukemia tumor model), increase in life span). Settings: dose 5.00 mg/kg on day 1, vehicle water.
Type: in vivo, Female CDF1 mice
Description: Female CDF1 mice (16-22 g) are injected with a suspension of 1 x 10^6 tumor cells in 0.5 mL of 0.15 M saline on day zero. On day one, the mice receive the test compound in 0.5 mL of the chosen medium (usually water). Six mice were used for each test dose, with six doses normally being run. Normal controls (six mice) receive tumor on day zero and 0.5 mL of the test medium on day one. Positive controls (six mice) receive tumor on day zero and 8 mg/kg cisplatin in 0.5 mL of 0.15 M saline on day one. All compound doses are adjusted for the actual average weight of the mice involved. Testing is terminated at three times the normal control mean life span. The percent increase in lifespan (ILS) is calculated as follows: %ILS = [(mean life span (test)/mean life span(control)-I]x100 A 25% ILS or greater indicates activity. The maximum possible ILS is 200%. The positive control must have an ILS of S 25% for the test to be considered valid.
The tumor line is maintained by transfer of 5 x 10^4- cells in 0.1 mL saline every seven days. DBA/2 (18-22 g) mice are employed for tumor transfers
For `NC1CCCCC1N.O=C1[O][Pt][O]P(=O)([O-])C1c1ccccc1.[Na+]` (mixture of isomers) [Ex 6, Na[Pt(trans-R,R-dach)(2-phosphonophenytacetate)]], the “%ILS” value was 2%.

Same assay, conditions: dose 5.00 mg/kg on day 1, vehicle water; survivors
In the case of `NC1CCCCC1N.O=C1[O][Pt][O]P(=O)([O-])C1c1ccccc1.[Na+]` (mixture of isomers) [Ex 6, Na[Pt(trans-R,R-dach)(2-phosphonophenytacetate)]], the Surv. is reported as 0/ 6.

Same assay, conditions: dose 10.00 mg/kg on day 1, vehicle water
With `NC1CCCCC1N.O=C1[O][Pt][O]P(=O)([O-])C1c1ccccc1.[Na+]` (mixture of isomers) [Ex 6, Na[Pt(trans-R,R-dach)(2-phosphonophenytacetate)]] the “%ILS” value was 6%.

Same assay, conditions: dose 10.00 mg/kg on day 1, vehicle water; survivors
With `NC1CCCCC1N.O=C1[O][Pt][O]P(=O)([O-])C1c1ccccc1.[Na+]` (mixture of isomers) [Ex 6, Na[Pt(trans-R,R-dach)(2-phosphonophenytacetate)]] the Surv. was 0/ 6.

Same assay, conditions: dose 20.00 mg/kg on day 1, vehicle water
For `NC1CCCCC1N.O=C1[O][Pt][O]P(=O)([O-])C1c1ccccc1.[Na+]` (mixture of isomers) [Ex 6, Na[Pt(trans-R,R-dach)(2-phosphonophenytacetate)]], the “%ILS” value was 26%.

Same assay, conditions: dose 20.00 mg/kg on day 1, vehicle water; survivors
With `NC1CCCCC1N.O=C1[O][Pt][O]P(=O)([O-])C1c1ccccc1.[Na+]` (mixture of isomers) [Ex 6, Na[Pt(trans-R,R-dach)(2-phosphonophenytacetate)]] the Surv. was 0/ 6.

Same assay, conditions: dose 40.00 mg/kg on day 1, vehicle water
With `NC1CCCCC1N.O=C1[O][Pt][O]P(=O)([O-])C1c1ccccc1.[Na+]` (mixture of isomers) [Ex 6, Na[Pt(trans-R,R-dach)(2-phosphonophenytacetate)]] the “%ILS” value was 47%.

Same assay, conditions: dose 40.00 mg/kg on day 1, vehicle water; survivors
`NC1CCCCC1N.O=C1[O][Pt][O]P(=O)([O-])C1c1ccccc1.[Na+]` (mixture of isomers) [Ex 6, Na[Pt(trans-R,R-dach)(2-phosphonophenytacetate)]] was tested, and the Surv. was 0/ 6.

Same assay, conditions: dose 80.00 mg/kg on day 1, vehicle water
For `NC1CCCCC1N.O=C1[O][Pt][O]P(=O)([O-])C1c1ccccc1.[Na+]` (mixture of isomers) [Ex 6, Na[Pt(trans-R,R-dach)(2-phosphonophenytacetate)]], the “%ILS” value was 53%.

Same assay, conditions: dose 80.00 mg/kg on day 1, vehicle water; survivors
In the case of `NC1CCCCC1N.O=C1[O][Pt][O]P(=O)([O-])C1c1ccccc1.[Na+]` (mixture of isomers) [Ex 6, Na[Pt(trans-R,R-dach)(2-phosphonophenytacetate)]], the Surv. is reported as 0/ 6.

Same assay, conditions: dose 160.00 mg/kg on day 1, vehicle water
In the case of `NC1CCCCC1N.O=C1[O][Pt][O]P(=O)([O-])C1c1ccccc1.[Na+]` (mixture of isomers) [Ex 6, Na[Pt(trans-R,R-dach)(2-phosphonophenytacetate)]], the “%ILS” value is reported as 76%.

Same assay, conditions: dose 160.00 mg/kg on day 1, vehicle water; survivors
`NC1CCCCC1N.O=C1[O][Pt][O]P(=O)([O-])C1c1ccccc1.[Na+]` (mixture of isomers) [Ex 6, Na[Pt(trans-R,R-dach)(2-phosphonophenytacetate)]] was tested, and the Surv. was 0/ 6.

The molecules below were run on Sarcoma 180 ascites (assay: S180a screening (Sarcoma 180 ascites tumor model), increase in life span). Settings: dose 40.00 mg/kg on day 1, vehicle water.
Type: in vivo, CFW mice
Description: CFW mice, averaging 20 g, are innoculated on day zero with 0.2 mL of a freshly prepared saline suspension (0.15 M NaCI) containing 1 × 10^7 tumor cells/mL, or a total of 2 x 10^6 cells. On day I, the mice are injected with the test compound in the selected medium (usually water). Six mice are used per test dose, with six doses normally being run.
Also, on day one, two types of controls (6 mice/set are employed: (1) Normal (1 set): 0.5 mL of the solvent medium used for the test compound, and (2) Positive control (1 set): cis-[Pt(NH3)2Cl2] in saline at 8 mg/kg.
The effectiveness of a compound is measured in terms of the increase in life span (ILS) of the test animals relative to the controls calculated from the day of tumor inoculation (day zero). The day of evaluation is arbitrarily taken as that day corresponding to twice the mean life-span of the normal controls. This sets a practical upper limit of 100% on the ILS attainable. For calculation purposes, survivors on the day of evaluation are considered to have died on that day. The % ILS is formulated as: [formula]
ILS values above 50% represent activity. The positive controls must have an ILS of ≧ 50% for the test to be valid.
`NC1CCCCC1N.O=C1[O][Pt][O]P(=O)([O-])C1c1ccccc1.[Na+]` (mixture of isomers) [Ex 6, Na[Pt(trans-R,R-dach)(2-phosphonophenytacetate)]] was tested, and the “%ILS” value was 24%.

Same assay, conditions: dose 40.00 mg/kg on day 1, vehicle water; survivors on day of evaluation
`NC1CCCCC1N.O=C1[O][Pt][O]P(=O)([O-])C1c1ccccc1.[Na+]` (mixture of isomers) [Ex 6, Na[Pt(trans-R,R-dach)(2-phosphonophenytacetate)]] was tested, and the Surv. was 0/ 6.

Same assay, conditions: dose 80.00 mg/kg on day 1, vehicle water
For `NC1CCCCC1N.O=C1[O][Pt][O]P(=O)([O-])C1c1ccccc1.[Na+]` (mixture of isomers) [Ex 6, Na[Pt(trans-R,R-dach)(2-phosphonophenytacetate)]], the “%ILS” value was 88%.

Same assay, conditions: dose 80.00 mg/kg on day 1, vehicle water; survivors on day of evaluation
`NC1CCCCC1N.O=C1[O][Pt][O]P(=O)([O-])C1c1ccccc1.[Na+]` (mixture of isomers) [Ex 6, Na[Pt(trans-R,R-dach)(2-phosphonophenytacetate)]] was tested, and the Surv. was 2/ 6.

Same assay, conditions: dose 160.00 mg/kg on day 1, vehicle water
`NC1CCCCC1N.O=C1[O][Pt][O]P(=O)([O-])C1c1ccccc1.[Na+]` (mixture of isomers) [Ex 6, Na[Pt(trans-R,R-dach)(2-phosphonophenytacetate)]] was tested, and the “%ILS” value was 102%.

Same assay, conditions: dose 160.00 mg/kg on day 1, vehicle water; survivors on day of evaluation
`NC1CCCCC1N.O=C1[O][Pt][O]P(=O)([O-])C1c1ccccc1.[Na+]` (mixture of isomers) [Ex 6, Na[Pt(trans-R,R-dach)(2-phosphonophenytacetate)]] was tested, and the Surv. was 5/ 6.
